Test results as given in article PMC12203697, “Bioactive constituents from the edible seaweed Halymenia hawaiiana (Rhodophyta)” (Pharmaceutical Biology, 2025).
Converted amounts (≈) assume the structure as drawn. Read-outs that look alike come from different tables or passages of the source.

Assays:
[1] = tested on: ROS/RNS generation in RAW 264.7 cells; assay: Intracellular ROS/RNS levels in LPS-induced RAW 264.7 cells (H2DCF-DA); assay type: cell-based; conditions: Mus musculus
Description: To measure the formation of intracellular ROS and RNS, we utilized the fluorogenic dye 2′,7′-dichlorodihydrofluorescein diacetate (Cat. No. 4091-99-0, H2DCF-DA, Abcam, Boston, MA, USA). This dye detects hydrogen peroxide, peroxyl radicals, and peroxynitrite anions (Kwon et al. [2019]). In brief, RAW 264.7 cells were seeded into a black 96-well plate (Cat. No. 165305, Thermo Fisher, USA) at 4 × 10^4 cells per well and incubated for 24 hr at 37 °C in 5% CO2. Afterward, the cells were treated with or without a sample for 4 hr before adding 1 μg/mL LPS (Cat. No. 00-4976-93, Thermo Fisher, USA) for 20 hr. Once this incubation was complete, the cells were washed twice with fetal bovine serum (FBS)-free media (Cat. No. A5256701, Thermo Fisher, USA) and stained with 10 μM H2DCF-DA (Cat. No. D399, Thermo Fisher, USA) in FBS-free media for 30 min at 37 °C, protected from light. Next, the dye-containing media was discarded, and the cells were washed twice with fresh serum-free media. The relative fluorescent intensity of the cells was measured using a fluorescence plate reader (Synergy H1, BioTeK, Winooski, VT, USA) with excitation/emission at 485 nm/535 nm. Curcumin (Cat. No. C1386-5G, Millipore Sigma, Burlington, MA, USA), a natural phenolic compound with antioxidant activity, was used as positive control. All samples were tested in triplicates. A sulforhodamine B (SRB) assay was conducted to assess cellular viability under a similar experimental setup. The final percentage of inhibition of ROS/RNS generation was calibrated using the % of cell viability.

RAW 264.7 cells = assay: SRB cellular viability in RAW 264.7 cells; assay type: cell-based, mouse; conditions: under the NO and ROS/RNS assay conditions
Description: The nitrite concentration in the culture medium was measured to indicate nitric oxide (NO) production as previously described (Min et al. [2009]). The murine macrophage RAW 264.7 cell line was obtained from ATCC, Manassas, VA, USA, and maintained in Dulbecco’s modified Eagle’s medium supplemented with 10% heat-inactivated FBS (Cat. No. A5670801, Gibco BRL Co, Grand Island, NY, USA), penicillin G (100 units/mL) (Cat. No. P7794, Sigma-Aldrich, USA), streptomycin (100 µg/mL) (Cat. No. S9137, Sigma-Aldrich, USA), and L-glutamine (2 mM) (Cat. No. 25030081, Gibco BRL Co, Grand Island, NY, USA). In brief, RAW 264.7 cells were seeded at a density of 4 × 10^4 cells/well in phenol red-free media (Cat. No. 11835030, Gibco, USA) in a 96-well plate, and incubated in a humidified incubator with 5% CO2 at 37 °C for 24 hr. Following this, the cells were treated with increasing concentrations of samples ranging from 10–50 μg/mL for 4 hr, after which the cells were treated with 1 μg/mL LPS for 20 h. L-N-Monomethyl Arginine citrate (L-NMMA) (Cat. No. NC0190932, Cayman Chemical, Michigan, USA), a non-selective inhibitor of NOS, was used as positive control. The concentration of nitric oxide production was assessed using the Griess reagent, which consists of a 1:1 (v/v) mixture of 1% sulfanilamide (Cat No. A13001, Alfa Aesar, Massachusetts, USA) in H3PO4 and N-(1-naphthyl)ethylenediamine dihydrochloride (Cat. No. 102397, MP Biomedicals, USA). Absorbance was recorded with a microplate reader (SynergyMx, BioTeK, Winooski, VT, USA) at 540 nm. A standard curve was created using sodium nitrite (1–100 μM) (Cat. No. 44227, Alfa Aesar, Massachusetts, USA). […]
To measure the formation of intracellular ROS and RNS, we utilized the fluorogenic dye 2′,7′-dichlorodihydrofluorescein diacetate (Cat. No. 4091-99-0, H2DCF-DA, Abcam, Boston, MA, USA). […] The relative fluorescent intensity of the cells was measured using a fluorescence plate reader (Synergy H1, BioTeK, Winooski, VT, USA) with excitation/emission at 485 nm/535 nm. […]

S. marcescent = assay: Antibacterial MIC, broth microdilution with resazurin; assay type: cell-based, Serratia marcescens; conditions: Serratia marcescens, Gram-negative, read-out: MIC
Description: Methicillin-resistant Staphylococcus aureus (MRSA), methicillin-susceptible S. aureus (MSSA), and Gram-negative clinical isolates of bacteria [Escherichia coli (9637) and Serratia marcescens ATCC 13880] were used for this study. […] MSSA HBP10, MSSA LUU7, MSSA R113, S. aureus ONE9, and MSSA POB2 were isolated in Hawaiʻi (Gerken et al. [2021]). Mueller Hinton Broth (MHB, GTIN:00382902979630, Becton, Dickinson and Company, Franklin Lakes, NJ, USA) and Mueller Hinton Agar (MHA, GTIN:00382902252504, Becton, Dickinson and Company, Franklin Lakes, NJ, USA,) were used for bacterial inoculation. MRSA was a pathogen strain causing hospital-acquired infections in 1982. This strain easily acquires resistance to antibiotics, such as vancomycin. MSSA strains isolated from the Island of Hawaiʻi included: Honolʻii Beach Park (HBP10) carry the genes erm(C), aph(3′)-III, and mecA, which provide resistance to macrolide, aminoglycoside, and beta-lactam antibiotics, respectively; Wailuku River (LUU7) which contains the blaZ gene (beta-lactam resistance) (Gerken et al. [2021]). Richardson’s Beach Park (R113) and Onekahakaha (ONE9) which is known for its virulence factors (hlgA, hlgB, hlgC, lukD, and lukE).
The minimum inhibitory concentrations (MICs) were determined using a two-fold serial dilution method with MHB following the recommendations of the Clinical and Laboratory Standards Institute (CLSI [2012]; Elshikh et al. [2016]). In brief, serial two-fold dilutions of the samples in DMSO were mixed with MHB in a 96-well microplate. Then, 50 µL of bacteria suspension was added to each well, resulting in a final concentration of 1 × 10^4 colony-forming units/well. The plates were incubated at 35–37 °C for 18–24 hr. After incubation, 10 µL of 0.18% resazurin (Cat. No. R7017, Sigma-Aldrich, USA) was added to each well (Elshikh et al. [2016]). The MIC was assessed within 2–3 hr after the addition of resazurin. All antimicrobial assays were performed in triplicate, using vancomycin (Cat. No. SBR00001, Sigma-Aldrich, USA) and gentamicin (Cat. No. G1397, Sigma-Aldrich, USA) as standard controls.

[2] = RAW264.7, read-out: IC50, inhibition of LPS-induced ROS/RNS generation

Compound	IC50 [1, 2]	cytotoxicity in RAW 264.7 cells (in words) (RAW 264.7 cells)	MIC (S. marcescent)	IC50 ([1]; RAW264.7, RAW 264.7 cells, H2DCF-DA dye, LPS 1 μg/mL, read-out: IC50, inhibition of LPS-induced ROS/RNS generation)
CC(C)CCC[C@@H](C)[C@H]1CCC2[C@]1(C)CC=C1[C@]23C=C[C@]2(C[C@@H](O)CC[C@]12C)OO3 (stereo partly drawn) [Compound 11, (3β-5α-8α)5,8-epidioxycholesta-6,9(1)-diene-3-ol]	73.7 ± 6.2 µM	without inducing cytotoxicity	64 µg/mL (≈ 154 µM)	
CC(C)CCC[C@@H](C)[C@H]1CC[C@H]2[C@@H]3CC=C4C[C@@H](O)CC[C@]4(C)[C@H]3CC[C@]12C [Compound 9, cholesterol]		without inducing cytotoxicity	128 µg/mL (≈ 331 µM)	55 ± 4.1 µM
CC(C)CCC[C@@H](C)[C@H]1CCC2[C@@]34C=C[C@]5(C[C@@H](O)CC[C@]5(C)C3CC[C@@]21C)OO4 (stereo partly shown) [Compound 10, 7-dehydrochoresterol peroxide]	65 ± 4.8 µM	without inducing cytotoxicity	64 µg/mL (≈ 154 µM)	
Nc1ccn([C@H]2C[C@H](O)[C@@H](CO)O2)c(=O)n1 [Compound 1, deoxycytidine]			128 µg/mL (≈ 563 µM)	
